The target in the assay is human F508del-CFTR (Homo sapiens, UniProt P13569, DEL508-508). In words: F508del-CFTR cell surface expression (corrector activity), DiscoveRx ß-galactosidase complementation chemiluminescence assay in recombinant U2OS cell line.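 As to all read-outs here: U2OS cells co-expressing ProLink-tagged F508del-CFTR and a membrane-anchored enzyme acceptor, where more surface CFTR restores β-galactosidase activity measured by chemiluminescence.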 The conditions noted are these: for EC50: EC50, F508del-CFTR cell surface expression, U2OS cells, 16h compound incubation, geomean values; for Emax: U2OS, in relation to Emax of corrector lumacaftor (=100%), arithmetic mean values.
Chain of human F508del-CFTR (P13569 with tags, fused parts or gaps DEL508-508): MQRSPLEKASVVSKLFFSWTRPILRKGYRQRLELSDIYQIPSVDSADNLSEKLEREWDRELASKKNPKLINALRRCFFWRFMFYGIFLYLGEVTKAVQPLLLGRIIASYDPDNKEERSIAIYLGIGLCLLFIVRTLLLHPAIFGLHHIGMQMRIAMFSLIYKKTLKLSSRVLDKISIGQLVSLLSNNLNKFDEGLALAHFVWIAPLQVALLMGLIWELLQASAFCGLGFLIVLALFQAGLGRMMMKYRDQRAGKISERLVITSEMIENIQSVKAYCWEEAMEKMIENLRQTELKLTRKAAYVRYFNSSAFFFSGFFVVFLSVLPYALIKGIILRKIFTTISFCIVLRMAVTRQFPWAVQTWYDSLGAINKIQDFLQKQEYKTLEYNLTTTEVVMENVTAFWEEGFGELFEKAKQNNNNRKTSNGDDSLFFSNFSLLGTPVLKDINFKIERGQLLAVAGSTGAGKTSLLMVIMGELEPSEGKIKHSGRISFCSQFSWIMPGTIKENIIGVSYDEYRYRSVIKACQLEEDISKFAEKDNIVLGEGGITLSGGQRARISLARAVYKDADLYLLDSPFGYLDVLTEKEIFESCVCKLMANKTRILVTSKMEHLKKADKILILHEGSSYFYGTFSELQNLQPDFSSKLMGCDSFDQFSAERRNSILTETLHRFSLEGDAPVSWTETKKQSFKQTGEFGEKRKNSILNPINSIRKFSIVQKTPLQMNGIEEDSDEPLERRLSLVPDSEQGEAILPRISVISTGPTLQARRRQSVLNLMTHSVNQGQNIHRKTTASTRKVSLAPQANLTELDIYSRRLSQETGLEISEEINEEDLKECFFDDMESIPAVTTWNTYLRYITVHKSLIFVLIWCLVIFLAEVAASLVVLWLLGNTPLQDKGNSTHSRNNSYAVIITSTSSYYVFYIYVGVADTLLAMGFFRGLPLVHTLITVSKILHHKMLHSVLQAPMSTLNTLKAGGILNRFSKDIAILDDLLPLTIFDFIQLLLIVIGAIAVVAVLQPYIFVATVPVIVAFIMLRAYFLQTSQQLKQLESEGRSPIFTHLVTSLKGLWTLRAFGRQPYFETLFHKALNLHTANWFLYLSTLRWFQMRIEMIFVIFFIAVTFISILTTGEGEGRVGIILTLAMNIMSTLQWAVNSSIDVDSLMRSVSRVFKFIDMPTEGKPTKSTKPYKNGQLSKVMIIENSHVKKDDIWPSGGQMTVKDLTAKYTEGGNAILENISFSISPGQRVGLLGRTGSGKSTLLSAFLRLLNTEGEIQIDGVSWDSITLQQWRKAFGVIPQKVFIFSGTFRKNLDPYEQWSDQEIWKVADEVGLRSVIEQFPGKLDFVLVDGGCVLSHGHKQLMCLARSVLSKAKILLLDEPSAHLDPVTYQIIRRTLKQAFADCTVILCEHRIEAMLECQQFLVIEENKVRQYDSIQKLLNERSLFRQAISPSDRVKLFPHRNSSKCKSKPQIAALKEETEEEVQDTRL

Here are results for eleven compounds from US20240208992A1, “MACROCYCLES AS CFTR MODULATORS” (Idorsia Pharmaceuticals Ltd, priority 2021, published 2024).

Each structure is given as a SMILES string.

Protocol: The method measures the effect of over-night compound incubation on F508del-CFTR cell surface expression in a recombinant U2OS cell line (DiscoveRx, #93-0987C3). This cell line is engineered to co-express (i) human F508del-CFTR tagged with a Prolink (PK=short ß-galactosidase fragment) and (ii) the remainder of the ß-galactosidase enzyme (Enzyme Acceptor; EA) localized to the plasma membrane. Incubation with compounds that increase PK-tagged F508del-CFTR at the plasma membrane will lead to complementation of the EA fragment to form a functional ß-galactosidase enzyme which is quantified by a chemiluminescence reaction.
The cells are incubated for 5h in the incubator before the addition of 5 μl/well of compound dilution series (5× working stocks in full medium). […] The cells are co-incubated with the compounds for 16h in the incubator at 37° C., 5% CO2. The next day, the cell plates are incubated for 2h at RT in the dark. […] Concentration-response curves are generated using compound-intrinsic maximal efficacy as upper plateau, and from these CRCs compound-intrinsic EC50 values are determined.
The calculated EC50 values may fluctuate depending on the daily assay performance. […] EC50 values from several measurements are given as geomean values. The calculated Emax values may fluctuate depending on the daily assay performance. […] Emax values from several measurements are given as arithmetic mean values.

Take `Cc1cc(CCNC(=O)[C@@H]2CC(=O)N(C)[C@@H](CC(C)C)C(=O)N3CCCC[C@@H]3C(=O)N[C@H](Cc3ccccc3)COc3ccc4c(c3C(=O)N2)OCC4)on1` [Example 455, (8S,12S,18aR,21R)-21-benzyl-12-isobutyl-11-methyl-N-(2-(3-methylisoxazol-5-yl)ethyl)-6,10,13,19-tetraoxo-3,4,6,7,8,9,10,11,12,13,16,17,18,18a,19,20,21,22-octadecahydro-15H-benzofuro[7,6-p]pyrido[2,1-f][1]oxa[4,7,10,14]tetraazacycloheptadecine-8-carboxamide]: the EC50 (commonly the concentration needed to bring the measured effect to its halfway point) is 0.677 µM and the Emax (commonly the greatest response seen or fitted, relative to the assay's reference) is 211%.

Consider `COc1cccc(CCNC(=O)[C@@H]2CC(=O)N(C)[C@@H](CC(C)C)C(=O)N3CCCC[C@@H]3C(=O)N[C@H](Cc3ccccc3)COc3ccc4c(c3C(=O)N2)OCC4)c1` [Example 456, (8S,12S,18aR,21R)-21-benzyl-12-isobutyl-N-(3-methoxyphenethyl)-11-methyl-6,10,13,19-tetraoxo-3,4,6,7,8,9,10,11,12,13,16,17,18,18a,19,20,21,22-octadecahydro-15H-benzofuro[7,6-p]pyrido[2,1-f][1]oxa[4,7,10,14]tetraazacycloheptadecine-8-carboxamide], for which the EC50 was 0.25 µM and the Emax turned out to be 185%.

Take `COCCN1C(=O)[C@H](CC(C)C)N(C)C(=O)C[C@@H](C(=O)NCCc2cccc(OC)c2)NC(=O)c2c(ccc3ccccc23)OC[C@@H](Cc2ccccc2)NC(=O)C12CC2` [Example 457, (3′S,7′S,13′R)-13′-benzyl-7′-isobutyl-9′-(2-methoxyethyl)-N-(3-methoxyphenethyl)-6′-methyl-1′,5′,8′,11′-tetraoxo-2′,3′,4′,5′,6′,7′,8′,9′,11′,12′,13′,14′-dodecahydro-1′H-spiro[cyclopropane-1,10′-naphtho[1,2-p][1]oxa[4,7,10,14]tetraazacycloheptadecine]-3′-carboxamide]: the EC50 worked out at 0.326 µM and the Emax was 144%.

`Cc1cc(CCNC(=O)[C@@H]2CC(=O)N(C)[C@@H](CC(C)C)C(=O)N3CCN(C(=O)OCC(Cl)(Cl)Cl)C[C@@H]3C(=O)N[C@H](Cc3ccccc3)COc3cnc4ccccc4c3C(=O)N2)on1` [Example 458, 2,2,2-trichloroethyl (9S,13S,19aR,22R)-22-benzyl-13-isobutyl-12-methyl-9-((2-(3-methylisoxazol-5-yl)ethyl)carbamoyl)-7,11,14,20-tetraoxo-7,8,9,10,11,12,13,14,16,17,19,19a,20,21,22,23-hexadecahydro-18H-pyrazino[2′,1′:6,7][1]oxa[4,7,10,14]tetraazacycloheptadecino[17,16-c]quinoline-18-carboxylate]: the EC50 stood at 0.209 µM and the Emax is 238%.

In the case of `COc1cccc(CCNC(=O)[C@@H]2CC(=O)N(C)[C@@H](CC(C)C)C(=O)N3CCN(C)C[C@@H]3C(=O)N[C@H](Cc3ccccc3)COc3cnc4ccccc4c3C(=O)N2)c1` [Example 459, (9S,13S,19aR,22R)-22-benzyl-13-isobutyl-N-(3-methoxyphenethyl)-12,18-dimethyl-7,11,14,20-tetraoxo-7,8,9,10,11,12,13,14,17,18,19,19a,20,21,22,23-hexadecahydro-16H-pyrazino[2′,11:6,7][1]oxa[4,7,10,14]tetraazacycloheptadecino[17,16-c]quinoline-9-carboxamide], the EC50 is 0.726 µM and the Emax was found to be 390%.

Regarding `COc1cccc(CCNC(=O)[C@@H]2CC(=O)N(C)[C@@H](CC(C)C)C(=O)N(C)C3(CC3)C(=O)N[C@H](Cc3ccccc3)COc3ccc4ncccc4c3C(=O)N2)c1` [Example 460, (3′S,7′S,13′R)-13′-benzyl-7′-isobutyl-N-(3-methoxyphenethyl)-6′,9′-dimethyl-1′,5′,8′,11′-tetraoxo-2′,3′,4′,5′,6′,7′,8′,9′,11′,12′,13′,14′-dodecahydro-1′H-spiro[cyclopropane-1,10′-[1]oxa[4,7,10,14]tetraazacycloheptadecino[16,17-f]quinoline]-3′-carboxamide], the EC50 was determined as 0.31 µM and the Emax was determined as 398%.

On to `CC(C)C[C@H]1C(=O)N2CCCC[C@@H]2C(=O)N[C@H](Cc2ccccc2)COc2cnc3ccccc3c2C(=O)N[C@H](C(=O)NCCc2cccc(-n3nccn3)c2)CC(=O)N1C` [Example 461, (9S,13S,19aR,22R)-N-(3-(2H-1,2,3-triazol-2-yl)phenethyl)-22-benzyl-13-isobutyl-12-methyl-7,11,14,20-tetraoxo-7,8,9,10,11,12,13,14,17,18,19,19a,20,21,22,23-hexadecahydro-16H-pyrido[2′,1′:6,7][1]oxa[4,7,10,14]tetraazacycloheptadecino[17,16-c]quinoline-9-carboxamide], for which the EC50 was determined as 0.444 µM and the Emax amounted to 262%.

For the compound `CC(C)C[C@H]1C(=O)N2CCCC[C@H]2C(=O)N[C@H](Cc2ccccc2)COc2cnc3ccccc3c2C(=O)N[C@H](C(=O)NCCc2cccc(-n3nccn3)c2)CC(=O)N1C` [Example 462, (9S,13S,19aS,22R)-N-(3-(2H-1,2,3-triazol-2-yl)phenethyl)-22-benzyl-13-isobutyl-12-methyl-7,11,14,20-tetraoxo-7,8,9,10,11,12,13,14,17,18,19,19a,20,21,22,23-hexadecahydro-16H-pyrido[2′,1′:6,7][1]oxa[4,7,10,14]tetraazacycloheptadecino[17,16-c]quinoline-9-carboxamide], the EC50 came to 0.345 µM and the Emax worked out at 130%.

For `CC(C)C[C@H]1C(=O)N2CCCC[C@@H]2C(=O)N[C@H](Cc2ccccc2)COc2cnc3ccccc3c2C(=O)N[C@H](C(=O)NCCc2ccc(-n3nccn3)cc2)CC(=O)N1C` [Example 463, (9S,13S,19aR,22R)-N-(4-(2H-1,2,3-triazol-2-yl)phenethyl)-22-benzyl-13-isobutyl-12-methyl-7,11,14,20-tetraoxo-7,8,9,10,11,12,13,14,17,18,19,19a,20,21,22,23-hexadecahydro-16H-pyrido[2′,1′:6,7][1]oxa[4,7,10,14]tetraazacycloheptadecino[17,16-c]quinoline-9-carboxamide], the EC50 was 0.278 µM and the Emax is 269%.

Turning to `CC(C)C[C@H]1C(=O)N2CCCC[C@H]2C(=O)N[C@H](Cc2ccccc2)COc2cnc3ccccc3c2C(=O)N[C@H](C(=O)NCCc2ccc(-n3nccn3)cc2)CC(=O)N1C` [Example 464, (9S,13S,19aS,22R)-N-(4-(2H-1,2,3-triazol-2-yl)phenethyl)-22-benzyl-13-isobutyl-12-methyl-7,11,14,20-tetraoxo-7,8,9,10,11,12,13,14,17,18,19,19a,20,21,22,23-hexadecahydro-16H-pyrido[2′,1′:6,7][1]oxa[4,7,10,14]tetraazacycloheptadecino[17,16-c]quinoline-9-carboxamide], the EC50 was determined as 0.319 µM and the Emax worked out at 109%.

Take `COc1cccc(CCNC(=O)[C@@H]2CC(=O)N(C)[C@@H](CC(C)C)C(=O)N(C)CC(=O)N[C@H](Cc3ccccc3)COc3ccc4cnccc4c3C(=O)N2)c1` [Example 465]: the EC50 was 0.8 µM and the Emax stood at 387%.
